Experimental data reported in paper PMC8510269, “A Simple Method of Synthesis of 3-Carboxy-2,2,5,5-Tetraethylpyrrolidine-1-oxyl and Preparation of Reduction-Resistant Spin Labels and Probes of Pyrrolidine Series” (Molecules, 2021).
Where two headings read alike, the source gives them in different places.

Assays:
[1] = Reduction of nitroxides with ascorbate in the presence of glutathione (EPR kinetics); assay type: physicochemical; settings: nitroxide 0.3–0.4 mM, ascorbate 100–300 mM, 50 mM phosphate buffer, pH 7.4, 25 °C, glutathione 2 mM
Protocol: The EPR spectra in water were recorded on a Bruker ER-200D-SRC spectrometer in 50 µL glass capillary for 0.2–0.4 mM radical solutions degassed via bubbling with argon. Spectrometer settings: frequency, 9.87 GHz; microwave power, 5.0 mW; modulation amplitude, 0.05 mT; time constant, 50–100 ms; and conversion time, 5.12 ms. […] All the solutions were deoxygenated with argon, carefully and quickly mixed in a small tube to attain final concentrations (nitroxide, 0.2–04 mM; GSH, 2 mM; and ascorbate, 100–300 mM) and were placed into an EPR capillary (50 μL). The capillary was sealed on both sides and placed into the EPR resonator. The decay of amplitude of the low-field component of the EPR spectrum was followed to obtain the kinetics. The initial part of the decay curves (up to 200 min) was used for fitting. Kinetics of the decay was fitted to a monoexponential function to calculate the first-order rate constants. Then, these constants were divided by the concentration of ascorbic acid to calculate the second-order reaction constants (Figure S3). Partition coefficients in a water–octanol mixture were estimated from the amplitudes of the EPR spectra of a nitroxide in water after extensive shaking with different portions of added octanol and separation using centrifugation.

[2] = Decay of nitroxides in murine blood (EPR); assay type: in vitro ADME, mice; settings: nitroxide 0.2 mM
Protocol: (§1) The measurements of kinetics of nitroxide decay in blood and tissue homogenates were performed using an Elexsys E540 X-band spectrometer in a 50 µL glass capillary for 0.2 mM solutions, with the following spectrometer settings: frequency, 9.87 GHz; centerfield, 350.6 mT; sweep range, 10 mT; microwave power, 2.0 mW; modulation amplitude, 0.1 mT; time constant, 10.24 ms; and conversion time, 20.48 ms.
(§2) The stock solutions of the nitroxides 25 and 31 in water ([…]) were prepared, and pH was adjusted to 7.0 with NaOH. A total of 2 μL of the nitroxide solution was added to 98 μL of the blood or tissue homogenate, giving a nitroxide concentration equal to 0.2 mM. The resulting mixture of nitroxide with blood or tissue homogenate was transferred to the glass capillary (50 μL) and the latter was placed into the EPR resonator. The decay of the double integral of the EPR spectrum was followed to obtain the kinetics.
Male five-month-old C57BL/6 mice were obtained from the Breeding Experimental Animal Laboratory of the Institute of Cytology and Genetics (ICG), Siberian Division of the Russian Academy of Sciences (Novosibirsk, Russia). All the experiments were carried out according to Animal Care Regulations of the Institute of Cytology and Genetics (ICG), Novosibirsk. Animals were sacrificed by decapitation, blood was collected into a microcentrifuge tube with heparin (final concentration 5%), gently rocked by hand and snap-frozen with liquid nitrogen immediately after collection. Organ tissue (brain, heart, liver and kidney) was excised on ice, rinsed with ice-cold 10 mM PBS (pH 7.4), sheared with scissors and homogenized in PBS (1/1 by weight) on ice using electric homogenizer fitted with a Teflon head. The homogenates were then additionally mixed with PBS (1/1 by weight, final dilution 1/3) to decrease viscosity for further aspiration into glass capillaries, and snap-frozen in liquid nitrogen. […]

[3] = Decay of nitroxides in tissue homogenates (brain, kidney, liver, heart; EPR); assay type: in vitro ADME, mice; settings: nitroxide 0.2 mM
Protocol: as §1, §2
Male five-month-old C57BL/6 mice were obtained from the Breeding Experimental Animal Laboratory of the Institute of Cytology and Genetics (ICG), Siberian Division of the Russian Academy of Sciences (Novosibirsk, Russia). All the experiments were carried out according to Animal Care Regulations of the Institute of Cytology and Genetics (ICG), Novosibirsk. […]

[4] = Partition coefficient octanol/water estimated from EPR amplitudes; assay type: physicochemical; settings: ratio of concentrations in octanol to water; distilled water
Protocol: The EPR spectra in water were recorded on a Bruker ER-200D-SRC spectrometer in 50 µL glass capillary for 0.2–0.4 mM radical solutions degassed via bubbling with argon. Spectrometer settings: frequency, 9.87 GHz; microwave power, 5.0 mW; modulation amplitude, 0.05 mT; time constant, 50–100 ms; and conversion time, 5.12 ms. For kinetic measurements in water, stock solutions of nitroxide, ascorbic acid and glutathione in phosphate buffer (5 mM, pH 7.4) were prepared, and pH was adjusted to 7.4 with NaOH or HCl. All the solutions were deoxygenated with argon, carefully and quickly mixed in a small tube to attain final concentrations (nitroxide, 0.2–04 mM; GSH, 2 mM; and ascorbate, 100–300 mM) and were placed into an EPR capillary (50 μL). The capillary was sealed on both sides and placed into the EPR resonator. The decay of amplitude of the low-field component of the EPR spectrum was followed to obtain the kinetics. The initial part of the decay curves (up to 200 min) was used for fitting. Kinetics of the decay was fitted to a monoexponential function to calculate the first-order rate constants. Then, these constants were divided by the concentration of ascorbic acid to calculate the second-order reaction constants (Figure S3). Partition coefficients in a water–octanol mixture were estimated from the amplitudes of the EPR spectra of a nitroxide in water after extensive shaking with different portions of added octanol and separation using centrifugation.

[5] = literature value, cited from earlier work
[6] = parameters: method as in PMID 25348344; settings: cited from earlier work

Molecule | melting point | kred × 10^4 (second-order rate constant for the initial rate of reduction with ascorbate) [1] | Kp (partition coefficient octanol/water) [4] | other results
CCC1(CC)CC(C(=O)OC)C(CC)(CC)N1O.Cl (stereo not shown) | 148 to 150 °C | – | – | –
3-(2-Triphenylphosphonio)acetamidomethyl-2,2,5,5-tetraethylpyrrolidine-1-oxyl chloride [Nitroxide 28] | – | 2.4 ± 0.4 M^−1 s^−1 | 13 | Time to plateau of decay in blood [2]: 10 min; Decrease of concentration in blood ([2]; plateaus in 10 min): ca. 10%; Decay in homogenate of brain ([3]; mouse brain homogenate): Faster decay of 28 as compared to 22; Decay in homogenate of liver ([3]; mouse liver homogenate): Faster decay of 28 as compared to 22
CCC1(CC)CC(C(=O)O)C(CC)(CC)N1[O] (stereo not shown) [Nitroxide 1, 3-Carboxy-2,2,5,5-tetraethylpyrrolidine-1-oxyl] | – | 3.3 ± 0.5 M^−1 s^−1 | 270 | kred × 10^4 (second-order rate constant of reduction with ascorbate) ([5]; ref 9): 20 ± 10 M^−1 s^−1; kred × 10^4 (second-order rate constant of reduction with ascorbate) ([5]; ref 14): ≤ 10 M^−1 s^−1; kred × 10^4 (second-order rate constant of reduction with ascorbate) ([5]; ref 45): 12.5 ± 0.3 M^−1 s^−1; Decay in cytosolic extract compared with trityl radical [6]: slower decay in cytosolic extract than trityl radical
CCC1(CC)CC(C(=O)O)C(CC)(CC)N1 (stereo not shown) [Nitroxide 15, 3-Carboxy-2,2,5,5-tetraethylpyrrolidine] | 113 to 114 °C | – | – | –
CCC1(CC)CC(CN)C(CC)(CC)N1[O] (stereo not shown) [Nitroxide 22, 3-Aminomethyl-2,2,5,5-tetraethylpyrrolidine-1-oxyl] | – | 4.1 ± 0.2 M^−1 s^−1 | 5.5 | Decay in blood (in words) ([2]; 30 min): No decay

Now from value to molecule, other results behind:

melting point | kred × 10^4 (second-order rate constant for the initial rate of reduction with ascorbate) [1] | Kp (partition coefficient octanol/water) [4] | Molecule | other results
145 to 146 °C | – | – | CCC1=[N+]([O-])C(CC)(CC)C(C(=O)O)C1 (stereo not shown) [Nitroxide 8, 3-Carboxy-2,2,5-triethyl-3,4-dihydro-2H-pyrrole 1-oxide] | –
– | 2.5 ± 0.4 M^−1 s^−1 | 70 | CCC1(CC)CC(CNC(=O)CN2CCCC2)C(CC)(CC)N1[O] (stereo not shown) [Nitroxide 29, 3-(2-(Pyrrolidin-1-yl)acetamidomethyl)-2,2,5,5-tetraethylpyrrolidine-1-oxyl] | –
– | 2.2 ± 0.5 M^−1 s^−1 | 30 | CCC1(CC)CC(CN2CCCCC2)C(CC)(CC)N1[O] (stereo not shown) [Nitroxide 30, 3-((Piperidin-1-yl)methyl)-2,2,5,5-tetraethylpyrrolidine-1-oxyl] | –
